SMILES strings stand for the structures. Where a name gives a salt, the structure may show the parent alone.

The test has as its target T1, mGlyT-1b (Mus musculus, UniProt P28571).
T1 construct: host or cells: Flp-in-CHO
T1 sequence (P28571 1-651 isoform P28571-2): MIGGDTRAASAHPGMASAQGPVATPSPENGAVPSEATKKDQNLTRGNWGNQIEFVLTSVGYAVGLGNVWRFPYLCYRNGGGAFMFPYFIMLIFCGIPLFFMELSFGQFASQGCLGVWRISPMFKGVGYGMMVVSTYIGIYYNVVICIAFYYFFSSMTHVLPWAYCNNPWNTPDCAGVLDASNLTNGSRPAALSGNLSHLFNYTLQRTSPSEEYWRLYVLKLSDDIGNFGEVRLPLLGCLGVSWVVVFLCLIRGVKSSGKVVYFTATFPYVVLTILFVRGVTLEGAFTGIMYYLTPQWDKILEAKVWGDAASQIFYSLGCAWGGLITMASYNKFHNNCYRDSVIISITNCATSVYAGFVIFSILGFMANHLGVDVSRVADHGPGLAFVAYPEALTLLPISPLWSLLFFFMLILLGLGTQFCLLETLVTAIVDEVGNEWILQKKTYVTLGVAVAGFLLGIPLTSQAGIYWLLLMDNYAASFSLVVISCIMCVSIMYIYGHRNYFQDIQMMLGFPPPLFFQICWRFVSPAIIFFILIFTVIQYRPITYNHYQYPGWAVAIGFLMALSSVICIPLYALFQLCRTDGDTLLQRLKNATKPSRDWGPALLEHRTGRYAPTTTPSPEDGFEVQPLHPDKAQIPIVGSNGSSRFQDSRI
Briefly: Glycine uptake inhibition assay (mGlyT-1b). The conditions noted are these: [3H]-glycine uptake, Flp-in-CHO cells stably transfected with mGlyT1b cDNA, 20 min preincubation at 22° C. Type of test: cell-based. As to the method:
Nutrient mixture F-12 (Gibco Life-technologies), fetal bovine serum (FBS) 5%, (Gibco life technologies), Penicillin/Streptomycin 1% (Gibco life technologies), Hygromycin 0.6 mg/ml (Gibco life technologies), Glutamine 1 mM Gibco life technologies)
150 mM NaCl, 10 mM Hepes-Tris, pH 7.4, 1 mM CaCl2, 2.5 mM KCl, 2.5 mM MgSO4, 10 mM (+) D-glucose.
Flp-in™-CHO (Invitrogen Cat n° R758-07) cells stably transfected with mGlyT1b cDNA.
Glycine Uptake Inhibition Assay (mGlyT-1b)
On day 1 mammalian cells, (Flp-in™-CHO), transfected with mGlyT-1b cDNA, were plated at the density of 40,000 cells/well in complete F-12 medium, without hygromycin in 96-well culture plates. On day 2, the medium was aspirated and the cells were washed twice with uptake buffer (UB). The cells were then incubated for 20 min at 22° C. with either (i) no potential competitor, (ii) 10 mM non-radioactive glycine, (iii) a concentration of a potential inhibitor. A range of concentrations of the potential inhibitor was used to generate data for calculating the concentration of inhibitor resulting in 50% of the effect (e.g. IC50, the concentration of the competitor inhibiting glycine uptake of 50%). A solution was then immediately added containing [^3H]-glycine 60 nM (11-16 Ci/mmol) and 25 μM non-radioactive glycine. The plates were incubated with gentle shaking and the reaction was stopped by aspiration of the mixture and washing (three times) with ice-cold UB. The cells were lysed with scintillation liquid, shaken 3 hours and the radioactivity in the cells was counted using a scintillation counter.
`COc1cc(C(F)(F)F)cc(SC)c1C(=O)NC1(c2ccncc2)CCCN(C)C1` (racemic) [Example 71, rac-2-Methoxy-6-methylsulfanyl-N-(1-methyl-1,4,5,6-tetrahydro-2H-[3,4′]bipyridinyl-3-yl)-4-trifluoromethyl-benzamide]: the IC50 worked out at 55.9 nM.

As to `CCc1cc(C(F)(F)F)ccc1C(=O)NC1(c2ccncc2)CCCN(C)C1` (racemic) [Example 72, rac-2-Ethyl-N-(1-methyl-1,4,5,6-tetrahydro-2H-[3,4′]bipyridinyl-3-yl)-4-trifluoromethyl-benzamide hydrochloride], the IC50 was 36.9 nM.

The compound `COc1cc(C(F)(F)F)cc(SC)c1C(=O)NC1(c2cccnc2)CCCN(C)C1` (racemic) [Example 73, rac-2-Methoxy-6-methylsulfanyl-N-(1-methyl-1,4,5,6-tetrahydro-2H-[3,3′]bipyridinyl-3-yl)-4-trifluoromethyl-benzamide] displayed an IC50 of 54.4 nM.

`CCc1cc(C(F)(F)F)ccc1C(=O)NC1(c2cccnc2)CCCN(C)C1` (racemic) [Example 74, rac-2-Ethyl-N-(1-methyl-1,4,5,6-tetrahydro-2H-[3,3′]bipyridinyl-3-yl)-4-trifluoromethyl-benzamide hydrochloride] registered an IC50 of 123 nM.

As to `CO[C@@H]1CN(C)C[C@](NC(=O)c2ccc(C(F)(F)F)cc2C2CC2)(c2ccccc2)C1` (racemic) [Example 76, 2-Cyclopropyl-N-((3RS,5SR)-5-methoxy-1-methyl-3-phenyl-piperidin-3-yl)-4-trifluoromethyl-benzamide], the IC50 turned out to be 92.9 nM.

In turn, `CCc1cc(C(F)(F)F)ccc1C(=O)N[C@@]1(c2ccccc2)C[C@H](OC)CN(C)C1` (racemic) [Example 77, 2-Ethyl-N-((3RS,5SR)-5-methoxy-1-methyl-3-phenyl-piperidin-3-yl)-4-trifluoromethyl-benzamide] showed an IC50 of 88.1 nM.

Turning to `COc1cc(C(F)(F)F)cc(OC)c1C(=O)NC1(c2ccccc2)CCCN(C)C1` (racemic) [Example 80, rac-2,6-Dimethoxy-N-(1-methyl-3-phenyl-piperidin-3-yl)-4-trifluoromethyl-benzamide], it took 176 nM to reach half-maximal inhibition (IC50). Against the preceding compound, the IC50 is about 2-fold higher.

With `C[C@@H]1CN(C)C[C@](NC(=O)c2ccc(C(F)(F)F)cc2C2CC2)(c2ccccc2)C1` (racemic) [Example 82, 2-Cyclopropyl-N-((3RS,5SR)-1,5-dimethyl-3-phenyl-piperidin-3-yl)-4-trifluoromethyl-benzamide hydrochloride], the midpoint of inhibition, the IC50, lay at 25.3 nM.

Compound `CN1CC(C)(C)CC(NC(=O)c2ccc(C(F)(F)F)cc2C2CC2)(c2ccccc2)C1` (racemic) [Example 83, rac-2-Cyclopropyl-4-trifluoromethyl-N-(1,5,5-trimethyl-3-phenyl-piperidin-3-yl)-benzamide] had an IC50 of 30 nM.

On to `COc1cc(C(F)(F)F)cc(SC)c1C(=O)NC1(c2ccccc2)CCC(C)(C)N(C)C1` (racemic) [Example 84, rac-2-Methoxy-6-methylsulfanyl-4-trifluoromethyl-N-(1,6,6-trimethyl-3-phenyl-piperidin-3-yl)-benzamide hydrochloride], for which the IC50 is 17.3 nM. Compared with the last compound, the IC50 is about 1.7-fold lower.

On to `COCO[C@@H]1CN(C)C[C@](NC(=O)c2c(OC)cc(C(F)(F)F)cc2SC)(c2ccccc2)C1` (racemic) [Example 86, 2-Methoxy-N-((3RS,5SR)-5-methoxymethoxy-1-methyl-3-phenyl-piperidin-3-yl)-6-methylsulfanyl-4-trifluoromethyl-benzamide], for which 71.5 nM corresponded to half-maximal inhibition (IC50).

The compound `COc1cc(C(F)(F)F)cc(SC)c1C(=O)NC1(c2cccc(Br)c2)CCCN(C)C1` (racemic) [Example 87, rac-N-[3-(3-Bromo-phenyl)-1-methyl-piperidin-3-yl]-2-methoxy-6-methylsulfanyl-4-trifluoromethyl-benzamide hydrochloride] registered an IC50 of 39.6 nM.

In turn, `COc1cc(C(F)(F)F)cc(SC)c1C(=O)NC1(c2ccc(F)cc2Cl)CCCN(C)C1` (racemic) [Example 88, rac-N-[3-(2-Chloro-4-fluoro-phenyl)-1-methyl-piperidin-3-yl]-2-methoxy-6-methylsulfanyl-4-trifluoromethyl-benzamide] registered an IC50 of 146 nM. Compared with the last compound, the IC50 is about 3.7-fold higher.

For `COc1cc(C(F)(F)F)cc(SC)c1C(=O)NC1(c2cccc(C(F)(F)F)c2)CCCN(C)C1` (racemic) [Example 89, rac-2-Methoxy-6-methylsulfanyl-N-[1-methyl-3-(3-trifluoromethyl-phenyl)-piperidin-3-yl]-4-trifluoromethyl-benzamide], the IC50 stood at 107 nM.

On to `COc1cccc(C2(NC(=O)c3c(OC)cc(C(F)(F)F)cc3SC)CCCN(C)C2)c1` (racemic) [Example 91, rac-2-Methoxy-N-[3-(3-methoxy-phenyl)-1-methyl-piperidin-3-yl]-6-methylsulfanyl-4-trifluoromethyl-benzamide], for which the IC50 stood at 113 nM.

Compound `COc1cc(C(F)(F)F)cc(SC)c1C(=O)NC1(c2cccc(F)c2)CCCN(C)C1` (racemic) [Example 93, rac-N-[3-(3-Fluoro-phenyl)-1-methyl-piperidin-3-yl]-2-methoxy-6-methylsulfanyl-4-trifluoromethyl-benzamide formic acid] came in with an IC50 of 47.9 nM.

In turn, `COc1cc(C(F)(F)F)cc(SC)c1C(=O)NC1(c2ccc(F)c(Cl)c2)CCCN(C)C1` (racemic) [Example 94, rac-N-[3-(3-Chloro-4-fluoro-phenyl)-1-methyl-piperidin-3-yl]-2-methoxy-6-methylsulfanyl-4-trifluoromethyl-benzamide] yielded an IC50 of 59.6 nM.

Turning to `COc1cc(C(F)(F)F)cc(SC)c1C(=O)NC1(c2ccc(F)c(F)c2)CCCN(C)C1` (racemic) [Example 95, rac-N-[3-(3,4-Difluoro-phenyl)-1-methyl-piperidin-3-yl]-2-methoxy-6-methylsulfanyl-4-trifluoromethyl-benzamide], the IC50 was 51.5 nM. The IC50 values of the last two compounds are within 1.5-fold of each other.

Regarding `COc1cc(C(F)(F)F)cc(SC)c1C(=O)NC1(c2cccc(C)c2)CCCN(C)C1` (racemic) [Example 96, rac-2-Methoxy-6-methylsulfanyl-N-(1-methyl-3-m-tolyl-piperidin-3-yl)-4-trifluoromethyl-benzamide], half-maximal inhibition (IC50) required 68.2 nM.

`COc1cc(C(F)(F)F)cc(SC)c1C(=O)NC1(c2ccc(F)c(C)c2)CCCN(C)C1` (racemic) [Example 97, rac-N-[3-(4-Fluoro-3-methyl-phenyl)-1-methyl-piperidin-3-yl]-2-methoxy-6-methylsulfanyl-4-trifluoromethyl-benzamide] gave an IC50 of 185 nM. This IC50 lies about 2.7-fold higher than the previous one.

In turn, `COc1cc(C(F)(F)F)cc(SC)c1C(=O)NC1(c2cc(F)cc(F)c2)CCCN(C)C1` (racemic) [Example 98, rac-N-[3-(3,5-Difluoro-phenyl)-1-methyl-piperidin-3-yl]-2-methoxy-6-methylsulfanyl-4-trifluoromethyl-benzamide] came in with an IC50 of 62.2 nM.

Compound `COc1cc(C(F)(F)F)cc(SC)c1C(=O)NC1(c2ccccc2)CN(C)CC(C)(C)C1` (racemic) [Example 99, rac-2-Methoxy-6-methylsulfanyl-4-trifluoromethyl-N-(1,5,5-trimethyl-3-phenyl-piperidin-3-yl)-benzamide hydrochloride] gave an IC50 of 36.6 nM.

`CCc1c(C(=O)NC2(c3ccccc3)CCCN(C)C2)ccc(C(F)(F)F)c1C` (racemic) [Example 103, rac-2-Ethyl-3-methyl-N-(1-methyl-3-phenyl-piperidin-3-yl)-4-trifluoromethyl-benzamide formic acid] yielded an IC50 of 77.3 nM.

On to `COc1cc(C(F)(F)F)cc(SC)c1C(=O)NC1(c2ccccc2)CCCN(C(C)(C)C)C1` (racemic) [Example 104, rac-N-(1-tert-Butyl-3-phenyl-piperidin-3-yl)-2-methoxy-6-methylsulfanyl-4-trifluoromethyl-benzamide], for which the IC50 is 173 nM.

Compound `COc1cc(C(F)(F)F)cc(SC)c1C(=O)NC1(c2ccccc2)CCC2(CC2)N(C)C1` (racemic) [Example 105, rac-2-Methoxy-N-(4-methyl-6-phenyl-4-aza-spiro[2.5]oct-6-yl)-6-methylsulfanyl-4-trifluoromethyl-benzamide] displayed an IC50 of 29.3 nM.

For the origin of these results see patent US9067911B2, “Piperidine derivatives” (Hoffmann-La Roche Inc., priority 2009, dated 2015).
